Laboratory results reported in article PMC9675976, “Selfish uptake versus extracellular arabinoxylan degradation in the primary degrader Ruminiclostridium cellulolyticum, a new string to its bow” (Biotechnology for Biofuels and Bioproducts, 2022).
“Also recorded” adds a separate entry of the source. Like-named read-outs stand apart in the source and are kept apart here.

Experiments:
[1] = system: XuaG; assay: Enzyme activity of XuaG on AXOS and XOS (HPAEC-PAD); format: biochemical, Ruminiclostridium cellulolyticum; conditions: substrate 1 mM, 37 °C
Description: (§1) XuaD, E, F, G (0.01 to 1 µM) were tested with different AXOS and/or XOS at 1 mM with incubation times varying from 5 min to 24 h. Enzymes (10 nM) were incubated at 37 °C for 5 min, kinetic parameters of XuaD were determined with both A^2,3XX and A^2XX, with sugar concentration varying from 0.05 to 8 mM, and XuaE with A^2,3XX with sugar concentration varying from 0.05 to 1 mM (at least 9 concentration point). Substrates and released products were quantified by high performance anion exchange chromatography coupled with pulsed amperometric detection on an ICS-3000 using a PA1 column (Thermo Scientific). Sugars were eluted with the buffers 0.1 M NaOH and 0.5 M sodium acetate + 0.1 M NaOH as the eluants A and B, respectively, using the multistep procedure as follows: isochratic separation (5 min, 95% A + 5% B), separation gradient (8 min, 10–37% B), column wash (2 min, 99% B), and subsequent column equilibration (2.5 min, 95% A + 5% B).

[2] = target: XuaE (Ruminiclostridium cellulolyticum, UniProt B8I0N8); assay: Enzyme activity of XuaE on AXOS (HPAEC-PAD); format: biochemical; conditions: for Products released by XuaE: HPAEC-PAD; for Specific activity (IU) of XuaE: substrate 1 mM, 37 °C
XuaE, sequence (B8I0N8 entry or part of it): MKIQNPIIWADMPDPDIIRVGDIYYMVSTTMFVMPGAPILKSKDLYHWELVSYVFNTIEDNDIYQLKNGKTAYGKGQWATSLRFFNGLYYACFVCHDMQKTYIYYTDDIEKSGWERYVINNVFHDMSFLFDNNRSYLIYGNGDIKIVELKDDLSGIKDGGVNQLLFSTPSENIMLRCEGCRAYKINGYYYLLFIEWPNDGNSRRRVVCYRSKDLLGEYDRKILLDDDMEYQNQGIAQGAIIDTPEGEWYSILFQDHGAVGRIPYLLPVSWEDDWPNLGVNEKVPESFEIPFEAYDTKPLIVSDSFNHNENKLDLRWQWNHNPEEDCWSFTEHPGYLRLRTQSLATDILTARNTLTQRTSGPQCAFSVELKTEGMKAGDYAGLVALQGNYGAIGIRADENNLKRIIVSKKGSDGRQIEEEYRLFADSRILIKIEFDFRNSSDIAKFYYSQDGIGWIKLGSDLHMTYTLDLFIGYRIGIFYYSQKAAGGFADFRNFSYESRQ
Description: as §1

[3] = target: T1, XuaA (Ruminiclostridium cellulolyticum, UniProt B8I0N3); assay: Isothermal titration calorimetry (ITC) of XuaA with ligands; format: binding; conditions: 25 °C, 25 mM phosphate buffer pH 7.0
T1 sequence (B8I0N3 entry or part of it): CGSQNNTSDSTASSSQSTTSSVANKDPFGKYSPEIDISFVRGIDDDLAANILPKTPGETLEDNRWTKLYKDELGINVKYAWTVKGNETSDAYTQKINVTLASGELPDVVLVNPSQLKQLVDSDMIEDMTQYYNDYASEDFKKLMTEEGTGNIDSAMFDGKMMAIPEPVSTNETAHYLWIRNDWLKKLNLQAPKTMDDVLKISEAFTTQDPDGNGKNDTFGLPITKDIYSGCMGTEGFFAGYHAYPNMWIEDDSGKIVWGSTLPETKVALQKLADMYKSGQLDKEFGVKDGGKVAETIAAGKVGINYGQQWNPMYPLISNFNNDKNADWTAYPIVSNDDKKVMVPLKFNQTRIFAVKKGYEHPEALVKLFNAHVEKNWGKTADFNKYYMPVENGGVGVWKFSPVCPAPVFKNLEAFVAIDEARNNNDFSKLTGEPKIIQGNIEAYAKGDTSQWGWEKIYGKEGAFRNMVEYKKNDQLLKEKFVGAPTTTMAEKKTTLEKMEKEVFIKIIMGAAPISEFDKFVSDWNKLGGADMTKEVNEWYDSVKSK
Description: (§2) XOS and AXOS were purchased from Megazyme: A^3X (ref O-A^3X), A^2XX (ref O-A^2XX), A^2,3XX (ref O-A^2,3XX), XA^3XX (ref O-XA^3XX), XA^2,3XX (ref O-XA^2,3XX), XAXXMIX (ref O-XAXXMIX), X2 to X6 (ref O-XBI, O-XTR, O-XTE, O-XPE, O-XHE, respectively) (Fig. 3) (Megazyme). For TSA experiments, monosaccharides, XOS and AXOS were tested at a final concentration of 1 mM or 0.1 mM (for X4, X5, and X6). Experiments were performed with XuaA (8 µM) in 25 mM phosphate buffer pH 7 and SYPRO orange (1/500) (Sigma-Aldrich). Melting curves were monitored from 10 to 90 °C with 0.5 °C increment every 30 s, on CFX96 touch real-time PCR detection system (Bio-Rad, France) and analyzed using the Bio-Rad CFX Maestro 1.1 software.
A MicroCal PEAQ-ITC (Malvern, Malvern, UK) was used to determine thermodynamic parameters of the binding at 25 °C in 25 mM phosphate buffer, pH 7.0. The ligands (50–2000 µM) were injected (one injection with 0.4 µL followed by 18 injections of 2 µL) in the cell containing XuaA (5–50 µM) in the same buffer. At least one duplicate was performed.

[4] = target: XuaD (Ruminiclostridium cellulolyticum, UniProt B8I0N6); assay: Enzyme activity of XuaD on AXOS (HPAEC-PAD); format: biochemical; conditions: for Products released by XuaD: HPAEC-PAD; for Specific activity (IU) of XuaD: substrate 1 mM, 37 °C
XuaD, sequence (B8I0N6 entry or part of it): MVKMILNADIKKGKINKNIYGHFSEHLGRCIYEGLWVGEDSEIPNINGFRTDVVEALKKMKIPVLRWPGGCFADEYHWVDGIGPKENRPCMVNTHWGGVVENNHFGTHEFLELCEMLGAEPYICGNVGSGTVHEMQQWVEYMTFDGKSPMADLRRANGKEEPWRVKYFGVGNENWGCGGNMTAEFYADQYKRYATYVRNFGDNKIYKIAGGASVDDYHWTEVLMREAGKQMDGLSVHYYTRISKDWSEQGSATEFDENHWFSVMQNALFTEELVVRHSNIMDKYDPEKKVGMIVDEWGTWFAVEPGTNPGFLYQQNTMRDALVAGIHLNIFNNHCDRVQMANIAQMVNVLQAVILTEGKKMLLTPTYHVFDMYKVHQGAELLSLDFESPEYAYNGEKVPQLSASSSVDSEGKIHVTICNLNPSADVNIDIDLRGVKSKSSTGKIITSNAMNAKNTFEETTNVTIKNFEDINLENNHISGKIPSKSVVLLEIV
Description: as §1

[5] = target: T1, XuaA; assay: Thermal shift assay (TSA) of XuaA with carbohydrate ligands; format: binding; conditions: for Binding to XuaA (in words): screened by TSA, then ITC
Description: as §2

[6] = system: XuaF; assay: Enzyme activity of XuaF on AXOS and XOS (HPAEC-PAD); format: biochemical, Ruminiclostridium cellulolyticum; conditions: substrate 1 mM, 37 °C
Description: as §1

[7] = XuaE versus XuaD on the same substrate
[8] = XuaA 8 µM, ligand 1 mM or 0.1 mM (X4, X5, X6), 25 mM phosphate buffer pH 7, mean of at least 2 experiments

| Specific activity (IU) of XuaG [1] | Products released by XuaD [4] | Specific activity (IU) of XuaD [4] | TSA ∆T [5, 8] | Specific activity (IU) of XuaF [6] | SMILES | also measured |
| --- | --- | --- | --- | --- | --- | --- |
| blocks the activity | Products: Ara, X3 | IU: 1263.0 ± 46.1 IU/µmol of enzyme | 6.5 °C | IU: 202.3 ± 18.7 IU/µmol of enzyme | OC[C@@H]1O[C@@H](O[C@H]2[C@H](O[C@@H]3CO[C@@H](O[C@@H]4COC(O)[C@H](O)[C@H]4O)[C@H](O)[C@H]3O)OC[C@@H](O)[C@@H]2O)[C@H](O)[C@H]1O (stereo partly shown) [A^2XX] | – |
| – | – | – | 0 °C | not active | OC1OC[C@@H](O[C@@H]2OC[C@@H](O)[C@H](O)[C@H]2O)[C@H](O)[C@H]1O (stereo partly shown) [X2, xylobiose] | – |
| IU: 24.5 ± 1.6 IU/µmol of enzyme | – | – | 0 °C | IU: 158.7 ± 21.1 IU/µmol of enzyme | OC1OC[C@@H](O[C@@H]2OC[C@@H](O[C@@H]3OC[C@@H](O)[C@H](O)[C@H]3O)[C@H](O)[C@H]2O)[C@H](O)[C@H]1O (stereo partly shown) [X3, xylotriose] | – |
| IU: 23.3 ± 0.5 IU/µmol of enzyme | – | – | 0 °C | IU: 87.2 ± 7.6 IU/µmol of enzyme | OC1OC[C@@H](O[C@@H]2OC[C@@H](O[C@@H]3OC[C@@H](O[C@@H]4OC[C@@H](O)[C@H](O)[C@H]4O)[C@H](O)[C@H]3O)[C@H](O)[C@H]2O)[C@H](O)[C@H]1O (stereo partly shown) [X4] | – |
| IU: 6.2 ± 0.5 IU/µmol of enzyme | – | – | – | IU: 25.3 ± 0.7 IU/µmol of enzyme | OC1OC[C@@H](O[C@@H]2OC[C@@H](O[C@@H]3OC[C@@H](O[C@@H]4OC[C@@H](O[C@@H]5OC[C@@H](O)[C@H](O)[C@H]5O)[C@H](O)[C@H]4O)[C@H](O)[C@H]3O)[C@H](O)[C@H]2O)[C@H](O)[C@H]1O (stereo partly shown) [X5] | ΔTm at 100 µM ([5]; pH 7, ligand 100 µM, Additional file 1, read-out: TSA ∆T): 0 °C |

The next lines start with the compound.

| SMILES | Specific activity (IU) of XuaG [1] | Products released by XuaD [4] | Specific activity (IU) of XuaD [4] | TSA ∆T [5, 8] | Specific activity (IU) of XuaF [6] | also measured |
| --- | --- | --- | --- | --- | --- | --- |
| OC[C@@H]1O[C@@H](O[C@@H]2[C@@H](O[C@@H]3O[C@@H](CO)[C@H](O)[C@H]3O)[C@H](O[C@@H]3CO[C@@H](O[C@@H]4COC(O)[C@H](O)[C@H]4O)[C@H](O)[C@H]3O)OC[C@H]2O)[C@H](O)[C@H]1O (stereo partly shown) [A^2,3XX] | blocks the activity | Products: Ara, X3 | IU: 1256.3 ± 50.2 IU/µmol of enzyme | 13.5 °C | – | Products released by XuaE [2]: Products: Ara, A^2XX, A^3XX?; Km of XuaE relative to XuaD (fold lower) [2, 7]: 18 fold; kcat of XuaE relative to XuaD [2, 7]: twofold lower; Specific activity (IU) of XuaE [2]: IU: 1938.0 ± 109.6 IU/µmol of enzyme; ITC -T∆S [3]: 15.1 ± 2.8 kcal/mol; ITC N (sites) [3]: 0.796 ± 2.37e-2 sites; Kd [3]: 12 ± 4.6 nM |
| OC[C@H]1OC(O)[C@H](O)[C@@H](O)[C@@H]1O (stereo partly shown) [G, glucose] | – | – | – | – | – | ΔTm at 1000 µM ([5]; pH 7, read-out: TSA ∆T): 0 °C; Binding to XuaA (in words) [5]: does not bind |
| OC1OC[C@@H](O[C@@H]2OC[C@@H](O[C@@H]3OC[C@@H](O[C@@H]4OC[C@@H](O[C@@H]5OC[C@@H](O[C@@H]6OC[C@@H](O)[C@H](O)[C@H]6O)[C@H](O)[C@H]5O)[C@H](O)[C@H]4O)[C@H](O)[C@H]3O)[C@H](O)[C@H]2O)[C@H](O)[C@H]1O (stereo partly shown) [X6, Xylohexaose] | – | – | – | 0 °C | – | TSA ∆T ([5]; ligand 100 µM, Additional file 1): 0 °C |
| O=C[C@H](O)[C@@H](O)[C@H](O)CO [X, xylose] | – | – | – | – | – | ΔTm at 1000 µM ([5]; pH 7, ligand 1 mM, Additional file 1, read-out: TSA ∆T): 0 °C; Binding to XuaA (in words) [5]: does not bind; also recorded: failed to bind |
| OC[C@@H]1O[C@@H](O[C@@H]2[C@@H](O[C@@H]3O[C@@H](CO)[C@H](O)[C@H]3O)[C@H](O[C@@H]3CO[C@@H](O[C@@H]4COC(O)[C@H](O)[C@H]4O)[C@H](O)[C@H]3O)OC[C@H]2O[C@@H]2OC[C@@H](O)[C@H](O)[C@H]2O)[C@H](O)[C@H]1O (stereo partly shown) [XA^2,3XX] | IU: 20.3 ± 0.2 IU/µmol of enzyme | Products: Ara, X4 | IU: 1.5 ± 0.03 IU/µmol of enzyme | 14 °C | IU: 29.7 ± 2.8 IU/µmol of enzyme | Products released by XuaE [2]: Products: Ara, XA^2XX, XA^3XX; Specific activity (IU) of XuaE [2]: IU: 1927.2 ± 100.4 IU/µmol of enzyme; ITC -T∆S [3]: 4.8 ± 0.5 kcal/mol; ITC N (sites) [3]: 1.05 ± 5.67e-2 sites; Kd [3]: 15.9 ± 0.1 nM |
